Calls of active or inactive are those of the source. The calls are words filed in the database; no cut-off is given here.
Tests used:
Type in all cases: functional, cell-based
[1] = target: T1, Muscarinic acetylcholine receptor M1 (Homo sapiens, UniProt P11229); test: Potentiation of muscarinic M1 receptor expressed in CHO cells assessed as effect on acetylcholine-induced intracellular calcium mobilization after 1 hr by FLIPR assay
T1 sequence (P11229 whole entry): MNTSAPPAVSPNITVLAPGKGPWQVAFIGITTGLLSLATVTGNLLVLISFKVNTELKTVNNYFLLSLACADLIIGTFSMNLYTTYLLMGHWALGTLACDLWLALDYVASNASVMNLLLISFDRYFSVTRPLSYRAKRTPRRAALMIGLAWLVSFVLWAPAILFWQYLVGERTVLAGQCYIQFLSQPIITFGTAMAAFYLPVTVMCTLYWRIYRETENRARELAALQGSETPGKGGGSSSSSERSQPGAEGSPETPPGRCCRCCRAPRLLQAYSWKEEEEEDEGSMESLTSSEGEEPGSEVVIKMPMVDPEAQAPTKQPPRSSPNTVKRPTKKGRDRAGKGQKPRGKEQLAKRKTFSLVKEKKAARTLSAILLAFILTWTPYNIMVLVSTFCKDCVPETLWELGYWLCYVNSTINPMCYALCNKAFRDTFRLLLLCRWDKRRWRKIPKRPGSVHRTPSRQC

[2] = target: T2, Muscarinic acetylcholine receptor M1 (Homo sapiens) (UniProt P11229); test: Potentiation of muscarinic M1 receptor expressed in CHO cells assessed as effect on acetylcholine-induced intracellular calcium mobilization after 1 hr by FLIPR assay relative to acetylcholine; set-up: concentration or dose not given beside the values
T2 sequence (whole entry): T1 sequence (P11229 whole entry)

[3] = target: T3, Muscarinic acetylcholine receptor M5 (Homo sapiens) (UniProt P08912); test: Potentiation of muscarinic M5 receptor expressed in CHO cells assessed as effect on acetylcholine-induced intracellular calcium mobilization at 10 uM after 1 hr by FLIPR assay relative to acetylcholine
T3 sequence (whole entry): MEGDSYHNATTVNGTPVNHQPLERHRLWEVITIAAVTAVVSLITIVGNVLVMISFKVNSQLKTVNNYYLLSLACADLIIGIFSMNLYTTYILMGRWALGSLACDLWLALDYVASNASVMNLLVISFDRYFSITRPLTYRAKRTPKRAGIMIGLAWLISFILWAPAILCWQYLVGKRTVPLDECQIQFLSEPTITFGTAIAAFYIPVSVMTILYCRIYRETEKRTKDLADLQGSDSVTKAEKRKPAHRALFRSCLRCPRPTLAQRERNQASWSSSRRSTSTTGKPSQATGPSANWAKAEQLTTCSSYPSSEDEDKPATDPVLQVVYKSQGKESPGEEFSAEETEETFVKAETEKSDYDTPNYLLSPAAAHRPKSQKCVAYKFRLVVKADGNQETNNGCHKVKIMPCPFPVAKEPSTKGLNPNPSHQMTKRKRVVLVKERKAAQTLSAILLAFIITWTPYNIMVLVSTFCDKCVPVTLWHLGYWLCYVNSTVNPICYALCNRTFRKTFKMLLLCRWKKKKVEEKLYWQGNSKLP

[4] = target: T2, Muscarinic acetylcholine receptor M1 (Homo sapiens); test: Potentiation of muscarinic M1 receptor expressed in CHO cells assessed as effect on acetylcholine-induced intracellular calcium mobilization at 30 uM after 1 hr by FLIPR assay
[5] = target: T3, Muscarinic acetylcholine receptor M5 (Homo sapiens); test: Potentiation of muscarinic M5 receptor expressed in CHO cells assessed as effect on acetylcholine-induced intracellular calcium mobilization at 30 uM after 1 hr by FLIPR assay relative to acetylcholine
[6] = target: T2, Muscarinic acetylcholine receptor M1 (Homo sapiens); test: Potentiation of muscarinic M1 receptor expressed in CHO cells assessed as effect on acetylcholine-induced intracellular calcium mobilization at 10 uM after 1 hr by FLIPR assay
[7] = target: Muscarinic acetylcholine receptor M3 (Homo sapiens) (UniProt P20309); test: Potentiation of muscarinic M3 receptor expressed in CHO cells assessed as effect on acetylcholine-induced intracellular calcium mobilization at 30 uM after 1 hr by FLIPR assay relative to acetylcholine
[8] = target: T2, Muscarinic acetylcholine receptor M1 (Homo sapiens); test: Potentiation of muscarinic M1 receptor expressed in CHO cells assessed as effect on acetylcholine-induced intracellular calcium mobilization at 100 uM after 1 hr by FLIPR assay
[9] = target: T3, Muscarinic acetylcholine receptor M5 (Homo sapiens); test: Potentiation of muscarinic M5 receptor expressed in CHO cells assessed as effect on acetylcholine-induced intracellular calcium mobilization up to 30 uM after 1 hr by FLIPR assay
[10] = target: Muscarinic acetylcholine receptor M3 (Homo sapiens) (UniProt P20309); test: Potentiation of muscarinic M3 receptor expressed in CHO cells assessed as effect on acetylcholine-induced intracellular calcium mobilization up to 30 uM after 1 hr by FLIPR assay
[11] = target: T4, Muscarinic acetylcholine receptor M2 (Homo sapiens) (UniProt P08172); test: Potentiation of muscarinic M2 receptor expressed in CHO cells co-transfected with Gqi5 assessed as effect on acetylcholine-induced intracellular calcium mobilization up to 30 uM after 1 hr by FLIPR assay
T4 sequence (whole entry): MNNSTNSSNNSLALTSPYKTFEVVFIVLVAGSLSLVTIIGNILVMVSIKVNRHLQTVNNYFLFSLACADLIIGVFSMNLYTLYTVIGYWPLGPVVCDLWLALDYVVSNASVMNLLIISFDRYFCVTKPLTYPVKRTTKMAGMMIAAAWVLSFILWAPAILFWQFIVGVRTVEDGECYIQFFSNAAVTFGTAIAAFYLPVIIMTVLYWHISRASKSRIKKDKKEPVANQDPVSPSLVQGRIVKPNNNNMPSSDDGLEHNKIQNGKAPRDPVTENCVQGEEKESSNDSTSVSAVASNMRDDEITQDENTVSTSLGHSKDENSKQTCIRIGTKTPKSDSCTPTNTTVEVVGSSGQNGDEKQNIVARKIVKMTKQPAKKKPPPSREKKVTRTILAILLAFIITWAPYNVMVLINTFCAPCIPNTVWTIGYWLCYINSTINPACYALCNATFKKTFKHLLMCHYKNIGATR

[12] = target: T5, Muscarinic acetylcholine receptor M4 (Homo sapiens) (UniProt P08173); test: Potentiation of muscarinic M4 receptor expressed in CHO cells co-transfected with Gqi5 assessed as effect on acetylcholine-induced intracellular calcium mobilization up to 30 uM after 1 hr by FLIPR assay
T5 sequence (whole entry): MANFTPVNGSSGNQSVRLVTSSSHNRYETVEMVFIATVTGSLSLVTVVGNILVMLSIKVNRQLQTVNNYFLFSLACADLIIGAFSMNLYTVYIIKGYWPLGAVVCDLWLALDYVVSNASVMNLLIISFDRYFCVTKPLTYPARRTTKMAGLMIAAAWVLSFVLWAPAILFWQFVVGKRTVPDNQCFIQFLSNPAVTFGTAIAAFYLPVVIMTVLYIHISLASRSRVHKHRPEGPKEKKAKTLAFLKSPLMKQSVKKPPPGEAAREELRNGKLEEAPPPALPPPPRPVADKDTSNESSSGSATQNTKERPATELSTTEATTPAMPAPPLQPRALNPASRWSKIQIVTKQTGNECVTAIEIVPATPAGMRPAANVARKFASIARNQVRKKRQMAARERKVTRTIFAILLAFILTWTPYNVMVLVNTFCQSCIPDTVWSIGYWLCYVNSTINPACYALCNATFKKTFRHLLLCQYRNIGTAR

Chain of Muscarinic acetylcholine receptor M3 (Homo sapiens) (P20309 whole entry, looked up): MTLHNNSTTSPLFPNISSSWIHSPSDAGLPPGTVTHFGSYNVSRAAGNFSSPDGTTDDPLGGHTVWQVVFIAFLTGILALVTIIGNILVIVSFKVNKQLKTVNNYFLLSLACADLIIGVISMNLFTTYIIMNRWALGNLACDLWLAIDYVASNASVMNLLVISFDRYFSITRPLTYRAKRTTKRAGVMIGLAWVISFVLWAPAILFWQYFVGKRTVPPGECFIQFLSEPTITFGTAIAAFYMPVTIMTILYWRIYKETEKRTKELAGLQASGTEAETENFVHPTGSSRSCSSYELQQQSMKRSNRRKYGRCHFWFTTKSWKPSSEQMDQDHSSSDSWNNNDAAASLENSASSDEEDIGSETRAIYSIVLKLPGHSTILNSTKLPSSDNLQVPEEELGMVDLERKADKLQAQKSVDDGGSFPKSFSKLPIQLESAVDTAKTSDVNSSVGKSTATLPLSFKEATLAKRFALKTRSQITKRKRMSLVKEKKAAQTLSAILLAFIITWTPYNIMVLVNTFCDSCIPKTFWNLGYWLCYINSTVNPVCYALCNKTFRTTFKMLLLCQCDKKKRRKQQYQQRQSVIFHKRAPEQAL

SMILES | EC50 [1] | Activity [2] | fold change (FC) [4] | other results
Cn1cc(-c2ccc(CN3C(=O)C(=O)c4c(F)ccc(F)c43)c(F)c2)cn1 | 1200 nM | 50% | – | –
Cn1cc(-c2ccc(CN3C(=O)C(=O)c4ccccc43)cc2)cn1 | 2300 nM | 80% | 14 | fold change (FC) [3]: 5; Activity [5]: 35%; fold change (FC) [5]: 14; fold change (FC) [6]: 5; Activity [7]: 25%
COc1ccc(Cn2cc(C(=O)O)c(=O)c3ccccc32)cc1 | – | 100% | – | fold change (FC) [8]: 100
Cn1cc(-c2ccc(CN3C(=O)C(=O)c4cccc(F)c43)c(F)c2)cn1 | 2300 nM | 55% | – | –

The next lines start with results.

EC50 [1] | Activity [2] | fold change (FC) [4] | SMILES | other results
1100 nM | 40% | – | Cn1cc(-c2cc(F)c(CN3C(=O)C(=O)c4cccc(F)c43)c(F)c2)cn1 | –
830 nM | 65% | 3 | Cn1cc(-c2ccc(CN3C(=O)C(=O)c4ccccc43)c(F)c2)cn1 | Activity [9]: inactive; fold change (FC) [9]: 3; Activity [10]: inactive; Activity [11]: inactive; Activity [12]: inactive
860 nM | 60% | 2 | Cn1cc(-c2cc(F)c(CN3C(=O)C(=O)c4ccccc43)c(F)c2)cn1 | fold change (FC) [9]: 2
